Values of other authors as cited in patent publication US20220095646A1, “METHODS FOR THE PRODUCTION AND USE OF MYCELIATED AMINO ACID-SUPPLEMENTED FOOD COMPOSITIONS” (MycoTechnology, Inc., priority 2019, published 2022).

Structure (SMILES)	Taste thresholds (Kato et al. 1989), bitter	Taste thresholds (Kato et al. 1989), sour [mg/mL]	Taste thresholds (Kato et al. 1989), umami [mg/mL]	other results
CC(C)[C@H](N)C(=O)O [Valine]	0.4 (bitter) mg/mL	–	–	–
C[C@@H](O)[C@H](N)C(=O)O [Threonine]	–	–	–	Taste thresholds (Kato et al. 1989), sweet (sweet): 2.6 (sweet) mg/mL
N[C@@H](CCC(=O)O)C(=O)O [Glutamic acid]	–	0.05	0.3	–
CC[C@H](C)[C@H](N)C(=O)O [Isoleucine]	0.9 (bitter) mg/mL	–	–	–
N[C@@H](CC(=O)O)C(=O)O [Aspartic acid]	–	0.03	1	–
NCCCC[C@H](N)C(=O)O [Lysine]	–	–	–	Taste thresholds (Kato et al. 1989), sweet and bitter (sweet and bitter): 0.5 (sweet and bitter) mg/mL
